One test addresses sigma-1 receptor (Homo sapiens, UniProt Q99720). The test is described as follows: PDSP off-target binding. The conditions noted are these: read-out: binding affinity sigma-1 (PDSP). The source says:
(§1) Further evaluation of the off-target binding of compound 6a was provided by the Psychoactive Drug Screening Program (PDSP) for a range of receptors including serotonin receptor subtypes, α-adrenergic receptor subtypes, β-adrenergic receptor subtypes, histaminergic receptor subtypes, muscarinic receptor subtypes, opioid receptor subtypes and the two sigma receptor subtypes.

Test [1] has as its target dopamine transporter (DAT) (Homo sapiens, UniProt Q01959). Put plainly: PDSP off-target binding. The settings on record: read-out: binding affinity DAT (PDSP).
From the text: as §1

The target in test [2] is norepinephrine transporter (NET) (Homo sapiens, UniProt P23975). Put plainly: PDSP off-target binding. The conditions noted are these: read-out: binding affinity NET (PDSP).
Sequence of norepinephrine transporter (NET) (P23975 whole entry, species assumed): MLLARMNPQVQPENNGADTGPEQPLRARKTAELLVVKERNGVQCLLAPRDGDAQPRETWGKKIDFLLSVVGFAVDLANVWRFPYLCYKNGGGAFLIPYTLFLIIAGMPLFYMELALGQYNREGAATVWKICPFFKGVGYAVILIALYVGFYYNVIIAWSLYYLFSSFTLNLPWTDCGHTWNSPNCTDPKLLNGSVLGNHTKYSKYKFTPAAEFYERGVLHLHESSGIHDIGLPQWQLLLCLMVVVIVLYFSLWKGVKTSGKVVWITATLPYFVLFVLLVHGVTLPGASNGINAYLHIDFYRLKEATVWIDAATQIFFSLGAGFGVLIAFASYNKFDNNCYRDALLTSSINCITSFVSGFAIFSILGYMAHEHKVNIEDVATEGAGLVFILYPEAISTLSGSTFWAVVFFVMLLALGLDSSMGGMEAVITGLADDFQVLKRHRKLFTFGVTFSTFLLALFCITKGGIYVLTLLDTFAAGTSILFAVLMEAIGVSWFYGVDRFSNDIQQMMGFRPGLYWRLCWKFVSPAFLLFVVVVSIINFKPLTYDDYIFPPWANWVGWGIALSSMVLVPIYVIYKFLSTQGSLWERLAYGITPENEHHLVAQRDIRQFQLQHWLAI
From the text: as §1

For the next test, the target named is D2 dopamine receptor (Homo sapiens, UniProt P14416). The test is described as follows: PDSP off-target binding. The settings on record: in words.
Sequence of D2 dopamine receptor (P14416 whole entry): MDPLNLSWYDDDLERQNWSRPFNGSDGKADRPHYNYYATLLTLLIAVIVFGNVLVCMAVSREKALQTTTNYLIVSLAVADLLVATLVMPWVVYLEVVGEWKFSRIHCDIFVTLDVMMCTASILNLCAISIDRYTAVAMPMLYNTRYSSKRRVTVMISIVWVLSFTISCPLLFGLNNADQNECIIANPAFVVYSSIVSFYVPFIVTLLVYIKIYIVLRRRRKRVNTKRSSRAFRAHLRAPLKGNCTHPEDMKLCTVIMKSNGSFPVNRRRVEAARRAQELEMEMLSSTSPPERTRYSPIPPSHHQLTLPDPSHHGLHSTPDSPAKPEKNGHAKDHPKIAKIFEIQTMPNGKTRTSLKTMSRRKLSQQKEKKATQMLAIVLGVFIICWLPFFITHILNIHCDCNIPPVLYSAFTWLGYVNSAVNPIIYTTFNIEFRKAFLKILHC
From the text: as §1

For the next test, the target named is α1d adrenergic receptor (Homo sapiens, UniProt P25100). The test is described as follows: PDSP off-target binding. The conditions noted are these: read-out: binding affinity α1d (PDSP).
Sequence of α1d adrenergic receptor (P25100 whole entry): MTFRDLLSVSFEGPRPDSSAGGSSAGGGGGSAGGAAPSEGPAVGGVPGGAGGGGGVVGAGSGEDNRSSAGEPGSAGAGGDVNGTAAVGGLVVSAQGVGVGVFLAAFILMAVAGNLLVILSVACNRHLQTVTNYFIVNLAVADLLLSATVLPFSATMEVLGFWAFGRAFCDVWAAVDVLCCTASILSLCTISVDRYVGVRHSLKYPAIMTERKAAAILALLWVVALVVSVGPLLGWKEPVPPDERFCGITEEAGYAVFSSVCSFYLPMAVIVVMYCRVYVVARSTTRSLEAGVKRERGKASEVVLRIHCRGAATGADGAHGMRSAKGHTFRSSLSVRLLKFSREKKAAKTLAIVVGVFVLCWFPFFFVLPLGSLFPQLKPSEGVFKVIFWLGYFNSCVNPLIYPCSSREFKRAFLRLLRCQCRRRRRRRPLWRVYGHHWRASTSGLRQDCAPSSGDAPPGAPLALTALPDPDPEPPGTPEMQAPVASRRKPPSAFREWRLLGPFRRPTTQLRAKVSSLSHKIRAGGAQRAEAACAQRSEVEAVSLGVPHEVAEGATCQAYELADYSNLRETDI
From the text: as §1

A further test addresses α1a adrenergic receptor (Homo sapiens, UniProt P35348). Put plainly: PDSP off-target binding. The settings on record: read-out: binding affinity α1a (PDSP).
From the text: as §1

In the next test the target is α2c adrenergic receptor (Homo sapiens, UniProt P18825). The test is described as follows: PDSP off-target binding. The conditions noted are these: read-out: binding affinity α2c (PDSP).
Sequence of α2c adrenergic receptor (P18825 whole entry): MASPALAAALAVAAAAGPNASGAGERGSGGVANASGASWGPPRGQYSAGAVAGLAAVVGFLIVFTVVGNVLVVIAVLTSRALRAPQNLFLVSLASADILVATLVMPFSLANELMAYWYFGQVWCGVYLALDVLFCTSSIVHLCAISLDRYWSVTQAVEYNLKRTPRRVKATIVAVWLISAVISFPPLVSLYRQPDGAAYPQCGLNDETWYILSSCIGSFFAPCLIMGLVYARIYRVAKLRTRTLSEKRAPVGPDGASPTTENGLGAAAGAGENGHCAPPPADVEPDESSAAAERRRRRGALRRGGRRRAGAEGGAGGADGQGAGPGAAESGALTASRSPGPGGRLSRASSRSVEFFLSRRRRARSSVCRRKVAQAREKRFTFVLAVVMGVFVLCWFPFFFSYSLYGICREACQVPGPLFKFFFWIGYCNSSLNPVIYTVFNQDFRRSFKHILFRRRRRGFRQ
From the text: as §1

The target of another test is 5-HT2B receptor (Homo sapiens, UniProt P41595). Put plainly: PDSP off-target binding. The conditions noted are these: read-out: binding affinity 5-HT2B (PDSP).
Sequence of 5-HT2B receptor (P41595 whole entry): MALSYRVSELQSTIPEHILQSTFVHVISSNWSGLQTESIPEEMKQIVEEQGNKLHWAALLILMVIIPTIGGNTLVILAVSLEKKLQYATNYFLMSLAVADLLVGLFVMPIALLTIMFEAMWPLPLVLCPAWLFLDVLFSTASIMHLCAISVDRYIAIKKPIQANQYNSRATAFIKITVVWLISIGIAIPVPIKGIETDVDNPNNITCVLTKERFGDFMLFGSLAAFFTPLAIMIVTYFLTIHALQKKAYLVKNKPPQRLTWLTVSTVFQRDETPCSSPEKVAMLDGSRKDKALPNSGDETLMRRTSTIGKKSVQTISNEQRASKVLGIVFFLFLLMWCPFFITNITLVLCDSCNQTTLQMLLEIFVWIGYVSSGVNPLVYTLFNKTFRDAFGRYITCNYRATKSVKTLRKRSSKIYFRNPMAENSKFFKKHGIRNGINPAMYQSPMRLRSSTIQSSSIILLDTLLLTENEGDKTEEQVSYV
From the text: as §1

The subject of a further test is DBA/2J mice. The test is described as follows: DOI-dependent head twitch response inhibition. It counts as in vivo, mouse. The settings on record: male DBA/2J mice, 10 mg/kg i.p., DOI 5 mg/kg, 30 min. The source says: First, we have previously published that D3 receptor selective compounds could attenuate a hallucinogen-dependent head twitch response (HTR) in male DBA/2J mice. […] Second, we previously reported that D3 vs. D2 dopamine receptor subtype selective ligands could attenuate L-dopa dependent abnormal involuntary movement (AIM) scores in unilaterally lesioned (hemiparkinsonian) male rats, which is a model for L-dopa-Induced Dyskinesia (LID).
Upon arrival DBA/2J mice (Jackson Labs) were allowed to acclimate for at least one week prior to testing. Mice were housed at ≤4 animals per cage with unlimited access to food and fresh water. The protocol for the HTR assessment has been previously reported. […]
However, a head twitch was defined as a rapid movement of the head, without the involvement of the front paws during grooming. […] At least two observers counted the number of head twitches by visual examination and the number of head twitches was recorded in 5-min cumulative intervals. […]
The effect of Group was assessed using two-way analysis of variance (ANOVA) with Time as the repeated measure. The data was further analyzed at each time point with a one-way ANOVA with Group as the factor followed by planned individual comparisons between different groups using a single degree-of-freedom F test involving the error term from the overall ANOVA when the Time and Group interaction was significant. […]

The target in a further test is D3 dopamine receptor (Homo sapiens, UniProt P35462).
Sequence of D3 dopamine receptor (P35462 whole entry): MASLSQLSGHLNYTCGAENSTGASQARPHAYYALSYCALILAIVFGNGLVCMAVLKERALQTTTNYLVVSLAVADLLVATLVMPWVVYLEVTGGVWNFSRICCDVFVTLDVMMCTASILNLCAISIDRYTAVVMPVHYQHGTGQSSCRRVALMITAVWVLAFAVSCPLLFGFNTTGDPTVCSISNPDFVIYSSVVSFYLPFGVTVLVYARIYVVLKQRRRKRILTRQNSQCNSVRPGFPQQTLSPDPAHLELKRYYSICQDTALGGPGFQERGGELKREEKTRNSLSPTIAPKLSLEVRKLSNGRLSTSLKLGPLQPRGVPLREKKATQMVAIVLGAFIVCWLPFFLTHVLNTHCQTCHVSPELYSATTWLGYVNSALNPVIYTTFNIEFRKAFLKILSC
The target in the next test is T1, human 5-HT1A receptor (Homo sapiens, UniProt P08908).
T1 construct: expressed in transfected cells; host or cells: CHO-K1
T1 sequence (P08908 1-422): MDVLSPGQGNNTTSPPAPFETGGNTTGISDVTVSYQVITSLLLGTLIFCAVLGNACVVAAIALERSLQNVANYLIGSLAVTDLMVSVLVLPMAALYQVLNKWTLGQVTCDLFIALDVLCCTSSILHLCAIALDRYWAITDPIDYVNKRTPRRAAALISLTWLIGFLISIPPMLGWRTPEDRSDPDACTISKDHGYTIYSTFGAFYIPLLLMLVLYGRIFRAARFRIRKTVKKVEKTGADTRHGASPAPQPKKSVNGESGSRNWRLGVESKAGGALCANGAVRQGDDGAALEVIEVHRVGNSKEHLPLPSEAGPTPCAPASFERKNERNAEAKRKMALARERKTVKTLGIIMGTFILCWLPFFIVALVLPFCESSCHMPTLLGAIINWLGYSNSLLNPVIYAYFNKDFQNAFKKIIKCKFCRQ
Put plainly: 5-HT1A receptor binding ([3H]8-hydroxy-DPAT displacement, CHO-K1 membranes). As to the method:
Because the 5-HT1A receptor is a commonly observed off-site binding site for benzamide N-phenylpiperazine ligands, compounds were simultaneously screened for binding of our compounds at the human 5-HT1A receptor expressed in CHO-K1 cells, using the radioligand [^3H]-8-hydroxy-DPAT (8-OH-DPAT) (Table 2). Based upon the analysis of the displacement assay shown in Table 2, the orthosteric compounds 3c–f appeared to bind with low affinity at human 5-HT1A receptors.
10 μg of membranes from CHO-K1 cells expressing the human 5-HT1A receptor were suspended in 50 mM Tris-HCl, 10 mM MgSO4, 0.5 mM EDTA, and 0.1% (w/v) ascorbic acid, pH 7.4 and test ligands (91 nM for single point radioligand displacement assay and 1 nM to 1 μM for full competition assay) were incubated with 0.25 nM [^3H]8-hydroxy-DPAT (PerkinElmer, Boston, MA, USA) for 60 min at room temperature. The nonspecific binding was determined using 10 μM metergoline (Sigma, St. Louis, MO, USA). After incubation, the bound ligands were filtered using an M-24 Brandel filtration system (Brandel, Gaithersburg, MD, USA), collected on glass fiber papers (Whatman grade 934-AH, GE Healthcare Bio-Sciences, Pittsburgh, PA, USA), and the radioactivity was quantitated using a MicroBeta2 Microplate scintillation counter 2450 (PerkinElmer, Boston, MA, USA).

Structures are written as SMILES.

Sequence of sigma-1 receptor (Q99720 whole entry, species assumed): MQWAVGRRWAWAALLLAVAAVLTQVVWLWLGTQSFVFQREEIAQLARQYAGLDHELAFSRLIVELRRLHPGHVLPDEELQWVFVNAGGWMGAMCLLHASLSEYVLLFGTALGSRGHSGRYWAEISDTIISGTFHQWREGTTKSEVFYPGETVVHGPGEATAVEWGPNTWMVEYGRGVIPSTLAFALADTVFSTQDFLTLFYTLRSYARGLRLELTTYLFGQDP
Sequence of α1a adrenergic receptor (P35348 whole entry): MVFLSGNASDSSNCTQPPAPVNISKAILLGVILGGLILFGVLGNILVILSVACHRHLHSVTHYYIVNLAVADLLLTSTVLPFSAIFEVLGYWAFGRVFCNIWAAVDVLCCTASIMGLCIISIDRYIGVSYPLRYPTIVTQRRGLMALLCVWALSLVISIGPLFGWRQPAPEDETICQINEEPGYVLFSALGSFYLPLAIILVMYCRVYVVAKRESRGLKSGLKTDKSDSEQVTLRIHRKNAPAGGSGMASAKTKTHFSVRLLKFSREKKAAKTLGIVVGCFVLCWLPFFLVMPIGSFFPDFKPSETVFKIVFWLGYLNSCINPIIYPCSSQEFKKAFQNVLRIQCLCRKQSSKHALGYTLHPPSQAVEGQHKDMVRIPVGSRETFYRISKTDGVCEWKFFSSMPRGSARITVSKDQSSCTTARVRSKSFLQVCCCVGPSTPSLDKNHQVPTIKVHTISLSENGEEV
Sequence of dopamine transporter (DAT) (Q01959 whole entry, species assumed): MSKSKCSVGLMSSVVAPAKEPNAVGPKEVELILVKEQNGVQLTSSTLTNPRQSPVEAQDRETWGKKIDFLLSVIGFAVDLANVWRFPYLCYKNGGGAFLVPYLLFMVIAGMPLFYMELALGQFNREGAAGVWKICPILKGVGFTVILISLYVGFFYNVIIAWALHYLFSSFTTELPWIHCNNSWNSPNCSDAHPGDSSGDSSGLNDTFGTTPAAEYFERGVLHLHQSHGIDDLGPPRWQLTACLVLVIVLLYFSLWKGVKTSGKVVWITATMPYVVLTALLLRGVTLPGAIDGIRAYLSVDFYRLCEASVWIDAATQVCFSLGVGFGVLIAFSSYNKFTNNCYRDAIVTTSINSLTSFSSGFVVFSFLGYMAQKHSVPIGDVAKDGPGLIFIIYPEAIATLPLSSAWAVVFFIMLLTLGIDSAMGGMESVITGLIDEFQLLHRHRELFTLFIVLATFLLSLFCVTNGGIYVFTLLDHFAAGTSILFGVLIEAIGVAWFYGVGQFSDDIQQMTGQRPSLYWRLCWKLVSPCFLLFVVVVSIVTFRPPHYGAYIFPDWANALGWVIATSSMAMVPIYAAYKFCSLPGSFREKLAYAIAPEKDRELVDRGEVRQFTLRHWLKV
Procedure for D3 dopamine receptor: Competitive radioligand binding techniques were used to determine the Ki values of ligands at human D2 and D3 dopamine receptors expressed in stably transfected HEK cells (Table 1).
The final radioligand concentration was approximately equal to the Kd value for the binding of the radioligand. […] For each competition curve, triplicates were performed using two concentrations of inhibitor per decade over five orders of magnitude.
The competition curves were modeled for a single binding site using Bs = Bo − ((Bo + L)/(IC50 + L)) where Bs is the amount of ligand bound to receptor and Bo is the amount of ligand bound to receptor in the absence of competitive inhibitor. L is the concentration of the competitive inhibitor. […] The values for Bs and Bo were constrained using experimentally derived values. The IC50 values were converted to equilibrium dissociation constants (Ki) [50, 51]. Mean Ki values ± S.E.M. are reported for at least three independent experiments.

As usually defined, the inhibition is the change of the read-out against control, counted positive when it falls. As for `O=C(NCCCCN1CCN(c2ccccc2F)CC1)c1ccc(-c2ccsc2)cc1` [Compound 6a], the Ki is > 175 nM on sigma-1 receptor; > 190 nM in test [1]; > 650 nM in test [2]; 16.6 nM on α1d adrenergic receptor; 9.8 nM at α1a adrenergic receptor; 27.1 nM at α2c adrenergic receptor. For the same molecule, the Ki came to 36.3 nM on 5-HT2B receptor; 1.4 ± 0.2 nM on D3 dopamine receptor; 199 nM on human 5-HT1A receptor (full competition curve, [3H]-8-hydroxy-DPAT, at least three experiments, read-out: Ki at 5-HT1A receptor). Moreover, the “binding affinity D2 (PDSP)” value on D2 dopamine receptor is “low affinity binding”. Moreover, the “DOI-dependent head twitch response” value in the test on DBA/2J mice is on record as “attenuated the number of head twitches”. Also, on D3 dopamine receptor (ratio of D2 and D3 Ki values (Table 1)), the “D2:D3 Selectivity” value is on record as 467. Also, the “5-HT1A affinity lower than D3 affinity” value at human 5-HT1A receptor (5-HT1A Ki vs. D3 Ki) is “approximately 140 fold”. For the same molecule, the “5-HT1A receptor affinity/displacement in words” value at human 5-HT1A receptor (radioligand displacement assessment at 91 nM) is on record as “decreased binding affinity”. The inhibition at 0.091 µM on human 5-HT1A receptor (single point displacement of [3H]-8-hydroxy-DPAT, 91 nM test compound, CHO-K1, ± S.E.M., n ≥ 3) was -3.3 ± 15.1%.

The values above are taken from article PMC8198181, “Evaluation of Substituted N-Phenylpiperazine Analogs as D3 vs. D2 Dopamine Receptor Subtype Selective Ligands” (Molecules, 2021).
